# Test system: BW5 T-cells
# Assay: Activation of TetCAR-expressing BW5 T-cells challenged with SupT1 cells expressing CD33, with increasing tetracycline
# Format: cell-based
# Details: TetCAR (anti-CD33) BW5 T-cells challenged with SupT1 cells expressing CD33
# Source text: A bicistronic construct was expressed in BW5 T cells as a single transcript which self-cleaves at the 2A site to yield a signalling component which comprises TiP fused via a flexible linker to the endodomain of CD3-Zeta; and a receptor component which comprises a CD33 recognizing scFv, a spacer derived from the Fc domain of IgG1, a CD4 derived transmembrane and intracellular domain; and TetR (FIG. 6a). A control was also expressed which was identical except that TiP was absent from the signalling component (FIG. 6b).
# The BW5 T-cells were challenged with wild-type SupT1 cells or SupT1 cells engineered to express CD33 in the absence of tetracycline or in the presence of increasing concentrations of tetracycline.
# Control TetCAR which lacks the TiP domain was also transduced into BW5. Once again, these T-cells were challenged with wild-type SupT1 cells or SupT1 cells engineered to express CD33 in the absence or in the presence of increasing concentration of Tetracycline.
smiles,measurement,value
"CN(C)[C@@H]1C(O)=C(C(N)=O)C(=O)[C@@]2(O)C(O)=C3C(=O)c4c(O)cccc4[C@@](C)(O)[C@H]3C[C@@H]12 [tetracycline, reference compound]",concentration of tetracycline at which activation is fully inhibited,100 nM

# Source: patent US11466070B2, “Signalling system” (AUTOLUS LIMITED, priority 2016, dated 2022)
